Data as given in patent US7205298B2, “Substituted triazine kinase inhibitors” (Janssen Pharmaceutica N.V., priority 2002, dated 2007).
“And” between values parts separate entries of the source, which are not always exact repeats. Equal values may be shown once.

Key:
[1] = biological target: T1, VEGF-R (rat VEGF-R2 kinase domain) (Rattus norvegicus, UniProt O08775); experiment: VEGF-R Screening Assay; format: biochemical
T1 construct: 6xHis (polyhistidine) (N)
Method: A kinase reaction mixture was prepared containing 50 mM Tris-HCl pH=8, 10 mM MgCl2, 0.1 mM Na3PO4, 1 mM DTT, 10 μM ATP, 0.025 μM biotinylated peptide substrate (also referred to herein as PLC-1 biotinylated peptide substrate and PDGF receptor substrate, sequence provided in the peptide substrate table) and 0.8 μCuries per well ^33P-γ-ATP (2000–3000 Ci/mmol). 70 μL of the kinase reaction mixture was dispensed into the well of a streptavidin coated FlashPlate™ (Cat. # SMP103, NEN, Boston, Mass.). Then 1 μL of test compound stock in 100% DMSO was added to the wells resulting in a final concentration of 1% DMSO in the reaction with a 100 μL final reaction volume. Next, soluble rat VEGF tyrosine kinase containing an N-terminal 6XHIS tag was diluted in 50 mM Tris-HCl pH=8.0, 0.1% BSA at a concentration of 5 ng per μL and 30 μL (150 ng enzyme per test well) was added to each well to initiate the reaction. The reaction was incubated for one hour at 30° C. At the end of the 1-hour incubation, the reaction was terminated by aspirating the reaction mixture from the plate and washing the wells twice with PBS containing 100 mM EDTA. The PLC1 biotinylated peptide substrate became immobilized on the Flashplate™ and the incorporation of ^33P-γ-ATP was measured by reading the plate on a scintillation counter. Inhibition of the enzymatic activity of the VEGF-R was measured by observing a reduced amount of ^33P-γ-ATP incorporated into the immobilized peptide.
Assays to test compound inhibition of other kinases were preformed using methods that measure the amount of phosphorylation of a biotinylated peptide substrate. Biotinylated peptide substrates were selected from the literature as appropriate for the enzyme being evaluated. The general procedure used to assay for kinase activity is as follows: a kinase reaction mix was prepared in 50 mM Tris-HCl pH=8, 10 mM MgCl2, 0.1 mM Na3VO4, 1 mM DTT, 10 μM ATP, 0.25–1 μM biotinylated peptide substrate, 0.2–0.8 μCuries per well ^33P-γ-ATP (2000–3000 Ci/mmol). Assay conditions vary slightly for each protein kinase, for example, insulin receptor kinase requires 10 mM MnCl2 for activity and Calmodulin-dependent protein kinase requires calmodulin and 2 mM CaCl2. The reaction mixture was dispensed into the wells of a streptavidin coated Flashplate and 1 μL test compound in 100% DMSO was added to a 100 μL reaction volume resulting in a final concentration of 1% DMSO in the reaction. Enzyme was diluted in 50 mM Tris-HCl pH=8.0, 0.1% BSA and added to each well. The reaction was incubated for one hour at 30° C. in the presence of a test compound. After one hour the reaction mix was aspirated from the plate and the plate was washed with PBS containing 100 mM EDTA. The plate was read on a scintillation counter to determine ^33P-γ-ATP incorporated into the immobilized peptide substrate. Test compounds were assayed in duplicate at 8 concentrations (100 μM, 10 μM, 1 μM, 100 nM, 10 nM, 1 nM, 100 pM, 10 pM). A maximum and minimum signal for the assay was determined on each plate. […] Known inhibitor compounds appropriate for the kinase being assayed were also included on each plate.
The form of VEGF-R (vascular endothelial growth factor receptor-2) used was a fusion protein containing a polyhistidine tag at the N-terminus followed by amino acids 786–1343 of the rat VEGF-R2 kinase domain (GenBank Accession #U93306). The form of CDK1 (cyclin dependent kinase 1) used was isolated from insect cells expressing both the human CDK1 catalytic subunit and its positive regulatory subunit cyclin B (CDK1:cyclin B protein, New England Biolabs, Beverly, Mass., Cat. #6020). The form of CDK4 (cyclin dependent kinase 4) used contains amino acids 769 to 921 of the mouse […] protein found in the GST-retinoblastoma protein construct (Santa Cruz Biotechnology, Santa Cruz, Calif.; Cat. #SC-4112). The form of EGF-R1 (epidermal growth factor receptor 1) used was purified from human A431 cell membranes (Sigma, St. Louis, Mo., Cat.# E3641). […]

[2] = biological target: T2, Protein Kinase A (Bos taurus, UniProt P00517); experiment: Kinase selectivity assay Protein Kinase A; format: biochemical, bovine
T2 construct: purified from bovine heart; purchased Upstate Biotech 14-114; host or cells: bovine heart (tissue)
Method: Assays to test compound inhibition of other kinases were preformed using methods that measure the amount of phosphorylation of a biotinylated peptide substrate. Biotinylated peptide substrates were selected from the literature as appropriate for the enzyme being evaluated. The general procedure used to assay for kinase activity is as follows: a kinase reaction mix was prepared in 50 mM Tris-HCl pH=8, 10 mM MgCl2, 0.1 mM Na3VO4, 1 mM DTT, 10 μM ATP, 0.25–1 μM biotinylated peptide substrate, 0.2–0.8 μCuries per well ^33P-γ-ATP (2000–3000 Ci/mmol). Assay conditions vary slightly for each protein kinase, for example, insulin receptor kinase requires 10 mM MnCl2 for activity and Calmodulin-dependent protein kinase requires calmodulin and 2 mM CaCl2. The reaction mixture was dispensed into the wells of a streptavidin coated Flashplate and 1 μL test compound in 100% DMSO was added to a 100 μL reaction volume resulting in a final concentration of 1% DMSO in the reaction. Enzyme was diluted in 50 mM Tris-HCl pH=8.0, 0.1% BSA and added to each well. The reaction was incubated for one hour at 30° C. in the presence of a test compound. […] The plate was read on a scintillation counter to determine ^33P-γ-ATP incorporated into the immobilized peptide substrate. […] A maximum and minimum signal for the assay was determined on each plate. […]

T1 sequence (O08775 786-1343): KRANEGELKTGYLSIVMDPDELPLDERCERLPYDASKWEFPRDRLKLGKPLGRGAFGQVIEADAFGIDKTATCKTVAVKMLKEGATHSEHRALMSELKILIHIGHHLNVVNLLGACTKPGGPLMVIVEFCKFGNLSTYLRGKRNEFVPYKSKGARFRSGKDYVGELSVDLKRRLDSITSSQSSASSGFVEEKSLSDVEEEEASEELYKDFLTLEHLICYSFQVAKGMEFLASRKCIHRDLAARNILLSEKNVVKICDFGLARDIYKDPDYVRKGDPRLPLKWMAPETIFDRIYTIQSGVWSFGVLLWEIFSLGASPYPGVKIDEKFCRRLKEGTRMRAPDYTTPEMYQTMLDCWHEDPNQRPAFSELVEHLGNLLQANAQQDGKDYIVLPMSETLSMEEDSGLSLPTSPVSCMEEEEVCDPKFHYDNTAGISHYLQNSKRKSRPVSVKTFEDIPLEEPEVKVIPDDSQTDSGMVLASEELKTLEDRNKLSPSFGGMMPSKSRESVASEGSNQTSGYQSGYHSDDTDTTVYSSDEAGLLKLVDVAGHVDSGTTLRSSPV

Row | SMILES | IC50 [1] | IC50 [2] [nM]
1 | OCCCNc1cncc(-c2ncnc(Nc3cccc(Cl)c3)n2)c1 [Compound 1, 3-((5-(4-((3-chlorophenyl)amino)-1,3,5-triazin-2-yl)-3-pyridinyl)amino)-1-propanol] | 2560 nM | > 100000
2 | OCCCNc1cc(-c2ncnc(Nc3cccc(Cl)c3)n2)ccn1 [Compound 2, 3-((4-(4-((3-chlorophenyl)amino)-1,3,5-triazin-2-yl)-2-pyridinyl)amino)-1-propanol] | 2560 nM and 2570 nM | > 100000
